Laboratory results: paper PMC4700278, “Molecular and Biochemical Analysis of the Estrogenic and Proliferative Properties of Vitamin E Compounds” (Frontiers in Oncology, 2016)

Columns and labels:
ERα = biological target: T1, ERα (Homo sapiens, UniProt P03372); test: Estrogen receptor-binding assay, competition with [3H]-17β-estradiol; design: expressed in transfected cells; host or cells: Cos-7; details: extracts of cos-7 cells expressing human ERα; 2 nM [3H]-E2; tocols 1 μM to 1 mM; N.M. = not measurable
T1 sequence (P03372 1-595): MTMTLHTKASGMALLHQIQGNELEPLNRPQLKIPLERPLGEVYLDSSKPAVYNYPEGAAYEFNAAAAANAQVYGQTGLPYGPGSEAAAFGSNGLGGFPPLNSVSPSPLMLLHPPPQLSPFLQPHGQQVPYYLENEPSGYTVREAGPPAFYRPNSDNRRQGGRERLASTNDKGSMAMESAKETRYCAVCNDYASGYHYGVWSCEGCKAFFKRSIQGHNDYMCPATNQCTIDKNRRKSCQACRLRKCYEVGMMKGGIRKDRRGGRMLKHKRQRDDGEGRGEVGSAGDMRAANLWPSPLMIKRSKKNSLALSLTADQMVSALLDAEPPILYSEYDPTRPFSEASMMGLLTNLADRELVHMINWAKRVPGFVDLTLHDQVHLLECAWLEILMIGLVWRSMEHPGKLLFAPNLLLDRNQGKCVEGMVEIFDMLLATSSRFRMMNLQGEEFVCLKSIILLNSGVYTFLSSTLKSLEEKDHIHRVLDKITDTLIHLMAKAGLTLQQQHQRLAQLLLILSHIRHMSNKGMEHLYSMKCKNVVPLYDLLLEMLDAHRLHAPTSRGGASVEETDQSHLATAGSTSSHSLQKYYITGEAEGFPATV

HMG-CoA reductase (HMGR) = biological target: T2, HMG-CoA reductase (HMGR) (Homo sapiens, UniProt P04035); test: HMG-CoA reductase activity in microsomal fraction of treated cells; type: cell-based; details: MCF-7, T47D and MDA-MB-231 cells treated with 500 μM; compared to solvent vehicle-treated cells
T2 construct: endogenous in cells; host or cells: MCF-7, T47D, MDA-MB-231 (microsomal fraction)
T2 sequence (P04035 1-888): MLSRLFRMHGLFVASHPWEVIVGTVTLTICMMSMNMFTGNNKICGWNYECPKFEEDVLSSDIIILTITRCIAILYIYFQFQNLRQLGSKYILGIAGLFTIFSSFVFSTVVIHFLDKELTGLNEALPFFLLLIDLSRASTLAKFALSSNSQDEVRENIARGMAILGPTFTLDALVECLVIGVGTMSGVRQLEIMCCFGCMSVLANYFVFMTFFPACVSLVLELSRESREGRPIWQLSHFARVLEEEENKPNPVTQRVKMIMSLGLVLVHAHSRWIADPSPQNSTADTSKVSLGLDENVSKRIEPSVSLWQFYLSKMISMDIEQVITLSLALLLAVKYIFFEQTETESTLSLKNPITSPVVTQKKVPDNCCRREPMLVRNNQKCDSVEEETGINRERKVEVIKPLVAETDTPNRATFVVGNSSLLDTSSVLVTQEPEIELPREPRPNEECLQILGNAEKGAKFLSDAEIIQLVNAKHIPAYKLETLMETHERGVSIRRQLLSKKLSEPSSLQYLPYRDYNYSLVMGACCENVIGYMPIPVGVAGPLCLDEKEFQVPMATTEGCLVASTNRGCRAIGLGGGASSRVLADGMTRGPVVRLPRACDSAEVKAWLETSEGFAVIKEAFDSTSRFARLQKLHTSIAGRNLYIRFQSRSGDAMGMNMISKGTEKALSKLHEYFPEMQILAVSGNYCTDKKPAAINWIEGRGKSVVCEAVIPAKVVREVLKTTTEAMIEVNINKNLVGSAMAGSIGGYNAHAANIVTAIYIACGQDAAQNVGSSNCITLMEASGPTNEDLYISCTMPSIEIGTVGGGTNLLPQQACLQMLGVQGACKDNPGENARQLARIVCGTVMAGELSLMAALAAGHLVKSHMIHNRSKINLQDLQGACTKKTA
Method: Figure 4 Effect of tocol on ER(+) and ER(−) BC cell proliferation and HMG-CoA reductase activity. (A) Effect of δ-tocols on estrogen and non-estrogen-regulated growth of MCF-7, T47D, and MDA-MB-231 cells. […] Cells were also treated with 30 μM lovastatin (Lova) in the presence or absence of 5 mM M, as described in Section “Materials and Methods.” Values are shown as means and vertical bars represent SEM. The data were analyzed by two-way ANOVA, followed by Bonferroni post hoc test. ***P < 0.001, **P < 0.01, and *P < 0.05 in comparison with control or bare-linked specific control. Ns: not significant. (B) Effect of δ-TT on hydroxymethylglutaryl coenzyme A reductase (HMGR) activity in MCF-7, T47D, and MDA-MB-231 cells. […] Data shown are the mean values ± SEM from three independent experiments performed in triplicate.

T47D (ER(+)) cells = test: Cell proliferation assay (sulforhodamine B); type: cell-based, human; details: 500 μM δ-TP or δ-TT; 30 μM lovastatin; 6-day period
Method: MCF-7 (ER(+)), T47D (ER(+)), and MDA-MB-231 (ER(−)) cell lines were from ATCC. Cell lines were maintained at 37°C in a humidified incubator in a 5% CO2-enriched atmosphere in T-75 flasks. […] Cells were grown for 24 h before treatment in phenol red-free medium containing 5% DCC-FCS. Cells were seeded into 96-well plates at 2000 cells/well. Treatment media (150 μl/well) was added on the following day and replaced at 48-h intervals until the end of the experiment. Cell density was measured via the sulforhodamine B method ([43]) after 0, 2, 4, 6, and 8 days. The absorbance of SRB was measured directly at 490 nm in the 96-well plates using a multiskan® multisoft reader from Labsystem.

CC(C)=CCC/C(C)=C/CC/C(C)=C/CC[C@]1(C)CCc2cc(O)cc(C)c2O1 [δ-TT, δ-tocotrienol]
IC50 (ERα): 96 ± 6 µM
effect on HMGR activity (HMG-CoA reductase (HMGR)): inhibition of HMGR activity
effect on T47D cell proliferation (T47D (ER(+)) cells): inhibited the proliferation

Cc1cc(O)cc2c1OC(C)(CCCC(C)CCCC(C)CCCC(C)C)CC2 (stereo not drawn) [δ-TP, δ-tocopherol]
IC50 (ERα): 118 ± 15 µM
effect on HMGR activity (HMG-CoA reductase (HMGR)): not
effect on T47D cell proliferation (T47D (ER(+)) cells): significant stimulation
